Structures are written as SMILES. pIC50: −log10 of the molar value.

This is an account of results in US20230014445A1, “ALLOSTERIC CHROMENONE INHIBITORS OF PHOSPHOINOSITIDE 3-KINASE (PI3K) FOR THE TREATMENT OF DISEASE” (Petra Pharma Corporation, priority 2021, published 2023).

The target of assay [1] is T1, human full length PIK3KA Wild-type (p110α/p85α complex) (Homo sapiens, UniProt P42336).
T1 construct: Recombinant, catalytically active human full length PIK3KA Wild-type and H1047R mutant were purchased; 6xHis (N); purchased EMD Millipore Sigma 14-602M
Description: PI3K-Alpha Kinase (PIK3CA) biochemical activity, wild-type (ADP-Glo). Particulars: 20 uM ATP. The text has this:
(§1) PI3K-Alpha Kinase (PIK3CA) Activity, Wild-Type and H1047R Mutant and Determining IC50 Values for Inhibitors
(§2) Recombinant, catalytically active human full length PIK3KA Wild-type and H1047R mutant were purchased as 1:1 complex of N-terminal 6×his tagged p110α (catalytic) and untagged p85α, (regulatory subunit) from EMD Millipore Sigma (cat. no. 14-602M and 14-792M, respectively). PIP2diC8 (Avanti Polar Lipids Inc., cat. no. 850185) or Soy PI (Avanti Polar Lipids Inc., cat. No. 840044P) was used as lipid substrate. PIP2diC8 or PI lyophilized powder was dissolved in milliQ water to a concentration of 1 mM just before use. 10 mM stock compounds in DMSO were serially diluted 1:3 to generate a 10-point curve and plated using an acoustic liquid handler system (Echo 550 series instrument, Labcyte). A 10× intermediate compound plate (200 uM starting compound concentration and 10% DMSO) was prepared before starting the reaction. A typical reaction mixture (50 uL) comprised 40 mM HEPES buffer, pH 7.4, 25 mM MgCl2, 0.01% v/v triton-X-100, 1% v/v DMSO, 20 mM NaCl, 1-5 nM WT or H1047R PI3K protein, 20 uM ATP, and 50 uM PIP2diC8 or Soy PI. 1% DMSO buffer alone without test compound was employed as MAX control (full activity in the absence of any inhibitor), and no enzyme control was used to determine the level of background Adenosine 5′-diphosphate (ADP) (MIN control). First, Wild-type (WT) and H1047R mutant protein in kinase buffer with all components except ATP were incubated with or without compound at 27° C. for 1 h. After the pre-incubation, the reaction was initiated by the addition of […] (20 uM final concentration). The reaction was allowed to proceed until about 10% conversion of ATP (2 uM ADP) at 27° C. After that time, 5 uL of reaction was mixed with 5 uL of ADP-Kinase Glo Reagent (ADP-Glo Kinase assay kit, Promega cat. no. V9102) supplemented with MgCl2 10 mM to stop the reaction and deplete the remaining ATP for 40 min at room temperature. Then, 10 uL of Kinase Detection Reagent (ADP-Glo Kinase assay kit, Promega cat. no. V9102) was added to simultaneously convert ADP to ATP and allow the newly synthesized ATP to be measured using a luciferase/luciferin reaction. After 30 min at room temperature the light generated was measured using a luminometer (EnVision plate reader, Perkin Elmer). Process data through Genedata-Screener tool. Relative IC50 values are determined using luminescence units by calculating percent inhibition with respect to on-plate “MIN” and “MAX” controls. Data was analyzed using a 4-parameter nonlinear logistic equation (four-parameter logistic concentration-response curve):
(§3) Y=bot+[(top−bot)/1+(x/IC50)slope]
(§4) where Y=% inhibition, X=concentration yielding y % inhibition, Bottom=minimum value of y attained by curve, Top=maximum value of y attained by curve and Slope=steepness of curve at IC50.
(§5) % Inh=[(median Max−x/median Max−median Min)]·100
(§6) IC50: concentration of compound that reduces a given response (ligand binding, enzyme response) by 50%. IC50 relative: concentration giving half the compound's maximum response.
(§7) For IC50 values shown in Table A, “A” means IC50<0.5 μM; “B” means IC50 ranging between 0.5 μM and 1.0 μM; “C” means IC50 ranging between 1 μM and 5 μM; “D” means IC50 ranging between 5 μM and 10 μM; “E” means IC50>10 μM.
In general terms: ADP-Glo first removes unused ATP, then detects ADP through luciferase.

Assay [2] concerns the target T2, human full length PIK3KA H1047R mutant (p110α/p85α complex) (Homo sapiens, UniProt P42336, H1047R).
T2 construct: Recombinant, catalytically active human full length PIK3KA Wild-type and H1047R mutant were purchased; 6xHis (N); purchased EMD Millipore Sigma 14-792M
Kind of assay: PI3K-Alpha Kinase (PIK3CA) biochemical activity, H1047R mutant (ADP-Glo). The following applies: 20 uM ATP.
From the text: as §1, §2, §3, §4, §5, §6, §7

T2 sequence (P42336 whole entry H1047R): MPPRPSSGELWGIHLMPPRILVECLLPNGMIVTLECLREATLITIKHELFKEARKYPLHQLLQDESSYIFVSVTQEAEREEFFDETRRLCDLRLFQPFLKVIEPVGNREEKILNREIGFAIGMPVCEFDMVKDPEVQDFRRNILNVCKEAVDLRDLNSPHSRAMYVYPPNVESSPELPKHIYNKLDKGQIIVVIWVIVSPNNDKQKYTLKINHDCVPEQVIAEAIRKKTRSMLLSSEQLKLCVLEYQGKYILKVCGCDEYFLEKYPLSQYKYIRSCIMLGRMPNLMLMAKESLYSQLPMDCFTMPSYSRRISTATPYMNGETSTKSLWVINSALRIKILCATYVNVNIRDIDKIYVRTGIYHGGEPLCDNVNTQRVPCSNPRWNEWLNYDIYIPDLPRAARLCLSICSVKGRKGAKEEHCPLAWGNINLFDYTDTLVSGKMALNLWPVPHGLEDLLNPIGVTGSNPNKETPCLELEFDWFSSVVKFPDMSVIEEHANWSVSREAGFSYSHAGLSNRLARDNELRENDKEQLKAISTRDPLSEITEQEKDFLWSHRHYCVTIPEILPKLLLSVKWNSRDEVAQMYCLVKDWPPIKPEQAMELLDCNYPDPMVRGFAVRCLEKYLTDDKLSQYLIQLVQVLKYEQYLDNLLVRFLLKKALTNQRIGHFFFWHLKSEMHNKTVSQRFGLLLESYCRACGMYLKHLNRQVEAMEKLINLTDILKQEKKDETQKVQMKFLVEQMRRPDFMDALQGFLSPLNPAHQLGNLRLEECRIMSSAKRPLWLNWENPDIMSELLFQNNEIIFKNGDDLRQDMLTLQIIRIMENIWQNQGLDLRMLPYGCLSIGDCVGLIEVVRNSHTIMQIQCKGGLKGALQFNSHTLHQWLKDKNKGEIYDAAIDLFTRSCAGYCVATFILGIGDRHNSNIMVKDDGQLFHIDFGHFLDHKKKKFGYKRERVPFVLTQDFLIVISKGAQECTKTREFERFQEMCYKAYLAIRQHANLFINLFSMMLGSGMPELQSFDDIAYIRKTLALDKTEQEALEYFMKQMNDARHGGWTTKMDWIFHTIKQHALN
T2 sequence (P27986 whole entry partner): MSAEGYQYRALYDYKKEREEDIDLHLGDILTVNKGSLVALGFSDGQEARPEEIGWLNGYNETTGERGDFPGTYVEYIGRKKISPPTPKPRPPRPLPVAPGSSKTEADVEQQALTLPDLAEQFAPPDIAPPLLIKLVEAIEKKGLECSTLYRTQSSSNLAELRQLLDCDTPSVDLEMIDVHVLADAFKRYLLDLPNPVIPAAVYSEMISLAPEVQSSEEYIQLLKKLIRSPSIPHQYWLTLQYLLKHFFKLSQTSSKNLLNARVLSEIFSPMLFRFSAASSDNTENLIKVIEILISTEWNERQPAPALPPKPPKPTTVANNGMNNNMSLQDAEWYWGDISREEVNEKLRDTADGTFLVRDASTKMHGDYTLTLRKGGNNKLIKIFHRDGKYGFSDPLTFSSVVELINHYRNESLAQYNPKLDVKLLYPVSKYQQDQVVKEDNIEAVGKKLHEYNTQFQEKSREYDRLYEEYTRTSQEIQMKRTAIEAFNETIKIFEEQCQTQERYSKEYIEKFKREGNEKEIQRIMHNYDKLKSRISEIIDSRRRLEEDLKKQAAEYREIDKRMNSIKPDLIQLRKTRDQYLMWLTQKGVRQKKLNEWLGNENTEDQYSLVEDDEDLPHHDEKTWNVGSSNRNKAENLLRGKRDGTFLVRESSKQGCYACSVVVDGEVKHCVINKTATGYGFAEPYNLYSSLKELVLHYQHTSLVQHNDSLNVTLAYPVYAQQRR

The pIC50 is the IC50 on a negative log10 scale, so that one unit is a factor of ten. As for `COc1ncc(-c2cc(=O)c3cc(C)cc(C(C)Nc4ccccc4C(=O)O)c3o2)cn1` (single isomer, unassigned) [Example 4, 2-[1-[2-(2-Methoxypyrimidin-5-yl)-6-methyl-4-oxo-chromen-8-yl]ethylamino]benzoic acid], the pIC50 in assay [1] (PIP2diC8 lipid substrate) and in assay [2] (PIP2diC8 lipid substrate) was greater than 6.30 throughout.
As for `COc1ccnc(-c2cc(=O)c3cc(C)cc(C(C)Nc4ccccc4C(=O)O)c3o2)c1` (single isomer, unassigned) [Example 43, 2-[1-[2-(4-Methoxy-2-pyridyl)-6-methyl-4-oxo-chromen-8-yl]ethylamino]benzoic acid, Isomer 2,2,2,2-trifluoroacetic acid], the pIC50 was 5.00 to 5.30 in assay [1] (Soy PI lipid substrate) and 6.00 to 6.30 in assay [2] (Soy PI lipid substrate).
On the same counts, the results for `Cc1cc(C(C)Nc2ccccc2C(=O)O)c2oc(-c3cn[nH]c3)cc(=O)c2c1` (single isomer, unassigned) [Example 51, 2-[1-[6-Methyl-4-oxo-2-(1H-pyrazol-4-yl)chromen-8-yl]ethylamino]benzoic acid, Isomer 2,2,2,2-trifluoroacetic acid] are 5.30 to 6.00 and greater than 6.30.
For `COc1cccc(-n2cc(-c3cc(=O)c4cc(C)cc(C(C)Nc5ccccc5C(=O)O)c4o3)cn2)c1` (single isomer, unassigned) [Example 53, 2-[1-[2-[1-(3-Methoxyphenyl)pyrazol-4-yl]-6-methyl-4-oxo-chromen-8-yl]ethylamino]benzoic acid, Isomer 2,2,2,2-trifluoroacetic acid], the negative-log IC50 (pIC50) in assay [1] (Soy PI lipid substrate) is 5.30 to 6.00; in assay [2] (Soy PI lipid substrate), greater than 6.30.
On the same counts, the results for `Cc1cc(C(C)Nc2ccccc2C(=O)O)c2oc(-c3cnn(-c4cccc(C#N)c4)c3)cc(=O)c2c1` (single isomer, unassigned) [Example 54, 2-[1-[2-[1-(3-Cyanophenyl)pyrazol-4-yl]-6-methyl-4-oxo-chromen-8-yl]ethylamino]benzoic acid, Isomer 2,2,2,2-trifluoroacetic acid] are 5.30 to 6.00 and greater than 6.30.
As for `Cc1cc(C(C)Nc2ccccc2C(=O)O)c2oc(-n3nccn3)cc(=O)c2c1` (single isomer, unassigned) [Example 57, 2-[1-[6-Methyl-4-oxo-2-(triazol-2-yl)chromen-8-yl]ethylamino]benzoic acid, Isomer 2,2,2,2-trifluoroacetic acid], the negative-log IC50 (pIC50) in assay [1] (Soy PI lipid substrate) was less than 5.00; in assay [2] (Soy PI lipid substrate), greater than 6.30.
For `Cc1cc(C(C)Nc2ccccc2C(=O)O)c2oc(-n3cccn3)cc(=O)c2c1` (single isomer, unassigned) [Example 58, 2-[1-(6-Methyl-4-oxo-2-pyrazol-1-yl-chromen-8-yl)ethylamino]benzoic acid, Isomer 2,2,2,2-trifluoroacetic acid], the figures for the pIC50 in assay [1] (Soy PI lipid substrate) and in assay [2] (Soy PI lipid substrate) were 5.00 to 5.30 and greater than 6.30, respectively.
For the compound `Cc1cc(C(C)Nc2ccccc2C(=O)O)c2oc(-n3ccnc3)cc(=O)c2c1` (single isomer, unassigned) [Example 59, 2-[1-(2-Imidazol-1-yl-6-methyl-4-oxo-chromen-8-yl)ethylamino]benzoic acid, Isomer 2,2,2,2-trifluoroacetic acid], the pIC50 in assay [1] (PIP2diC8 lipid substrate) is 5.30 to 6.00; in assay [2] (PIP2diC8 lipid substrate) it was greater than 6.30.
As for `Cc1cc(C(C)Nc2ccccc2C(=O)O)c2oc(-c3cnn(-c4cccnc4)c3)c(C)c(=O)c2c1` (single isomer, unassigned) [Example 63, 2-[1-[3,6-Dimethyl-4-oxo-2-[1-(3-pyridyl)pyrazol-4-yl]chromen-8-yl]ethylamino]benzoic acid, Isomer 1,2,2,2-trifluoroacetic acid], the pIC50 in assay [1] (Soy PI lipid substrate) was 5.30 to 6.00; in assay [2] (Soy PI lipid substrate), greater than 6.30.
As for `Cc1cc(C(C)Nc2ccccc2C(=O)O)c2oc(-c3cnn(-c4ccc(C#N)cc4)c3)cc(=O)c2c1` (single isomer, unassigned) [Example 64, 2-[1-2-[1-(4-Cyanophenyl)pyrazol-4-yl]-6-methyl-4-oxo-chromen-8-yl]ethylamino]benzoic acid, Isomer 2,2,2,2-trifluoroacetic acid], the pIC50 in assay [1] (Soy PI lipid substrate) is 5.30 to 6.00; in assay [2] (Soy PI lipid substrate), greater than 6.30.
